Test results reported in article PMC10096129, “Rational Design and Lead Optimisation of Potent Antimalarial Quinazolinediones and Their Cytotoxicity against MCF-7” (Molecules, 2023).
Where two headings read alike, the source gives them in different places.

Assays:
P. falciparum 3D7 [1] = experiment: Antimalarial assay against P. falciparum 3D7 (48 h growth, DNA fluorescent dye); format: cell-based, Plasmodium falciparum; conditions: for IC50: Plasmodium falciparum
Protocol: Plasmodium falciparum strain 3D7 was cultured in complete medium (RPMI-1640 supplemented with 10% Albumax II) using O Rh^+ red blood cells in a microaerobic environment (5% CO2, 5% O2, 90% N2). IC50 assay plates were prepared using fourfold serially diluted test compounds in complete medium to a final volume of 50 μL. Then, 50 μL of parasite inoculum at 2% parasitemia ring stage and 1% hematocrit was added to each well and incubated for 48 h in a microaerobic environment. The assay was terminated by freezing at -20 °C before growth measurement. Parasite growth was measured adding 100 μL of lysis buffer supplemented with 1× DNA fluorescent dye (UltraPower, […], Tokyo, Japan), and the fluorescent signal was measured at 495/530 nm. The IC50 value was calculated by GraphPad Prism 9.0 software (La Jolla, California, USA) using the dose-response (four-parameter) function. Artemisinin at 1 μM and complete medium were used as positive and negative controls, respectively.

MCF-7 cells = experiment: Antiproliferative assay against MCF-7 (MTT, 72 h); format: cell-based, Human; conditions: for IC50: Homo sapiens, MCF7, MCF-7 cells, 72 h, MTT; for cytotoxicity against MCF-7 cells, in words: compared with the parent compound
Protocol: Human breast cancer cells (MCF-7) purchased from ATCC were seeded at 2 × 10^3 cells/well on a 96-well black flat-bottom plate and were cultured in high-glucose DMEM (Dulbecco’s modified Eagle medium) supplemented with 10% fetal bovine serum and 1% penicillin/streptomycin. The culture was incubated at 37 °C, 5% CO2 for 24 h. After the incubation period, the test compounds were added into the cell plate at serially diluted concentrations (20, 2, 0.2, 0.02, 0.002, and 0.0002 μM), and the culture was incubated for 72 h at 37 °C, 5% CO2. After the 72 h incubation, the cultured media containing compounds were removed, and the serum-free media containing MTT were added to the same well with additional incubation for 3 h at 37 °C, 5% CO2. After 3 h incubation, the serum-free media containing MTT were removed, and DMSO was added into the same well; the resulting solution was measured for its absorbance at 570 nm using a Multimode Microplate Reader (ENVISION) (PerkinElmer, USA). The IC50 value was calculated using GraphPad. Doxorubicin at 10 µM was used as a positive control in this assay.

P. falciparum strains = system: P. falciparum strains; parameters: method as in PMID 24900261, PMID 26317851, PMID 28513586; conditions: multiple stages of the malaria parasite; cited from earlier work
[2] = system: human ovarian cancer (SKOV3); parameters: method as in earlier work; conditions: patent; cited from earlier work
P. falciparum 3D7 [3] = system: P. falciparum 3D7; parameters: method as in doi:10.3390/M1358; conditions: earlier report of the group; read-out: IC50 against P. falciparum 3D7; cited from earlier work
[4] = Table 3, blood-stage P. falciparum 3D7, various amine side chains, read-out: IC50 (µM) 3D7 ± SD
[5] = Table 2, blood-stage P. falciparum 3D7, various amino-acid linkers, read-out: IC50 (µM) 3D7 ± SD
[6] = P. falciparum 3D7, read-out: antimalarial activity against 3D7

Compound | antimalarial activity against 3D7, in words (P. falciparum 3D7 [1]; P. falciparum 3D7) | IC50 (P. falciparum 3D7 [1]; [4]) | IC50 (MCF-7 cells) | IC50 (P. falciparum 3D7 [1]; [5]) | further results
CC(C)[C@@H](C(=O)Nc1ccccc1)n1c(=O)[nH]c2ccccc2c1=O [Compound 18] | dramatic loss in the antimalarial activity | 0.607 ± 0.03 µM | > 20 µM |  | 
COc1cccc(NC(=O)Cn2c(=O)[nH]c3ccccc3c2=O)c1 [Compound 5] |  |  |  | > 10 µM | 
CC(C)[C@@H](C(=O)Nc1cccc(Cl)c1)n1c(=O)[nH]c2ccccc2c1=O [Compound 24] | excellent activity | 0.022 ± 0.005 µM | > 20 µM |  | 
COc1ccccc1CNC(=O)CCn1c(=O)[nH]c2ccsc2c1=O [MMV019066] |  |  |  |  | parasite growth inhibitory activity (P. falciparum strains): < 1 µM
CC(C)[C@@H](C(=O)Nc1ccc(Cl)c(Cl)c1)n1c(=O)[nH]c2ccccc2c1=O [Compound 26] | less potent antimalarial | 0.406 ± 0.034 µM | > 20 µM |  | cytotoxicity against MCF-7 cells, in words (MCF-7 cells): slightly higher cytotoxicity
COc1ccccc1CNC(=O)CCn1c(=O)[nH]c2ccccc2c1=O [MMV665916] |  |  |  |  | parasite growth inhibitory activity (P. falciparum strains): < 1 µM
COc1cccc(NC(=O)[C@H](C)n2c(=O)[nH]c3ccccc3c2=O)c1 [Compound 6] |  |  |  | > 10 µM | 
CCOC(=O)c1sc(NC(=O)[C@H](C(C)C)n2c(=O)[nH]c3ccccc3c2=O)nc1OC [Compound 3] |  |  |  |  | cytotoxicity against SKOV3, in words [2]: highly potent cytotoxicity
COc1ccc(NC(=O)[C@H](C(C)C)n2c(=O)[nH]c3ccccc3c2=O)cc1 [Compound 29] | dramatic loss in the antimalarial activity | > 10 µM | > 20 µM |  | 
CC(C)[C@@H](C(=O)Nc1cccnc1)n1c(=O)[nH]c2ccccc2c1=O [Compound 19] | decrease in antimalarial activity | 2.89 ± 0.401 µM | > 20 µM |  | 
COc1cccc(NC(=O)[C@H](CC(C)C)n2c(=O)[nH]c3ccccc3c2=O)c1 [Compound 7] |  |  |  | 3.25 ± 0.21 µM | IC50 (P. falciparum 3D7 [1]; [6]): 1 to 3 µM
CC(C)[C@@H](C(=O)Nc1ccc(F)c(F)c1)n1c(=O)[nH]c2ccccc2c1=O [Compound 23] |  | 0.038 ± 0.009 µM | 9.74 µM |  | cytotoxicity against MCF-7 cells, in words (MCF-7 cells): slightly higher cytotoxicity
CC(C)[C@@H](C(=O)Nc1ccncc1)n1c(=O)[nH]c2ccccc2c1=O [Compound 20] | decrease in antimalarial activity | 1.41 ± 0.115 µM | > 20 µM |  | 
COc1cccc(NC(=O)[C@H](C(C)C)n2c(=O)[nH]c3ccccc3c2=O)c1 [Compound 2] |  |  | 17.5 µM | 0.219 ± 0.024 µM | IC50 (P. falciparum 3D7 [3]): ~200 nM
CC(C)[C@@H](C(=O)Nc1cccc(F)c1)n1c(=O)[nH]c2ccccc2c1=O [Compound 21] | excellent activity | 0.036 ± 0.005 µM | > 20 µM |  | 
CC(C)[C@@H](C(=O)Nc1ccc(F)cc1)n1c(=O)[nH]c2ccccc2c1=O [Compound 22] | good antimalarial activity | 0.36 ± 0.034 µM | > 20 µM |  | 
COc1cccc(NCCn2c(=O)[nH]c3ccccc3c2=O)c1 [Compound 4] |  |  |  | > 10 µM | 
CC(C)[C@@H](C(=O)Nc1ccc(F)c(Cl)c1)n1c(=O)[nH]c2ccccc2c1=O [Compound 27] |  | 0.059 ± 0.012 µM | > 20 µM |  | 
CCC(C(=O)Nc1cccc(OC)c1)n1c(=O)[nH]c2ccccc2c1=O (stereo not drawn) [Compound 8] | potent sub-micromolar activity |  |  | 0.586 ± 0.032 µM | 
CC(C)[C@@H](C(=O)NCc1ccccc1)n1c(=O)[nH]c2ccccc2c1=O [Compound 28] | dramatic loss in the antimalarial activity | > 10 µM | > 20 µM |  | 
CCC[C@@H](C(=O)Nc1cccc(OC)c1)n1c(=O)[nH]c2ccccc2c1=O [Compound 9] |  |  |  | 1.11 ± 0.1 µM | IC50 (P. falciparum 3D7 [1]; [6]): 1 to 3 µM
CC(C)[C@@H](C(=O)Nc1ccc(Cl)cc1)n1c(=O)[nH]c2ccccc2c1=O [Compound 25] | good antimalarial activity | 0.711 ± 0.038 µM | 10.5 µM |  | 
